Experimental data as given in US6358934B1, “Anti-retroviral activity of 2′,3′-dideoxy-3′-fluoronucleosides” (Medivir AB, priority 1986, dated 2002).

Experiments:
[1] = target: DNA polymerase of hepatitis B virus (HBV) (Hepatitis B virus genotype D subtype ayw, UniProt P03156); assay: biochemical; details: 3 hours incubation at 37° C., cpm vs water control
Excerpt: Since hepatitis B virus cannot be grown in cell cultures, a cell-free assay system of the hepatitis B virus DNA polymerase has been used to investigate the effect of 3′-deoxy-3′-fluorothymidine. 3′-Deoxy-3′-fluorothymidine in cells is transformed to 3′-deoxy-3′-fluorothymidine-5′-triphosphate.
The HBV associated DNA polymerase activity can be measured in vitro (Kaplan et al., J. Virol., 12, 995-1005, 1973). A slight modification of this method has been used to test the substance for inhibition of this DNA polymerase activity. (Nordenfelt E., Öberg, B., Helgstrand E. and Miller E. Acta path., Microbiol. Scand. Sect B, 88:169-175, 1980). With this assay the 3′-deoxy-3′-fluorothymidine-5′-triphosphate has been tested, instead of the prodrug 3′-deoxy-3′-fluorothymidine, to evaluate its potential against hepatitis B virus DNA polymerase.
3′-deoxy-3′-fluorothymidine-5′-triphosphate was added to the final concentrations of 0.01 μM, 0.05 μM, 0.1 μM, 0.5 μM and 1.0 μM in the reaction mixture. The inhibition is calculated after 3 hours incubation at 37° C. and based on cpm compared to control with added water.

[2] = target: T1, reverse transcriptase of HIV (HTLV-III/LAV) (Human immunodeficiency virus type 1 group M subtype B, UniProt P03366); assay: Cell-free assay of HIV reverse transcriptase; format: biochemical
T1 construct: reverse transcriptase from HIV (HTLV-III/LAV)
Protocol: A cell-free assay system has been used to investigate the inhibition of 3′-deoxy-3′-fluorothymidine on reverse transcriptase of HIV (HTLV-III/LAV). The assay was performed as described by Vrang et Öberg, Antimicrob. Agents Chemother. 29, 867-872 (1986). With this assay the 3′-deoxy-3′-fluoro-thymidine-5′-triphosphate has been tested, instead of the prodrug 3′-deoxy-3′-fluorothymidine to evaluate its potential against reverse transcriptase from HIV (HTLV-III/LAV).

[3] = tested on: HIV (HTLV-III/LAV) in H9 cells; assay: Expressed reverse transcriptase activity in HIV-infected H9 cell cultures; format: cell-based
Protocol: The cells were then pelleted and dispersed in 2.5 ml phosphate buffered saline (PBS) including 2 μg/ml Polybrene. After incubation for 30 min the cells were pelleted and infected with HIV. After an adsorption period of 1 hour the cells were pelleted and washed once with 2.5 ml PBS. […] Samples for reverse transcriptase activity tests were taken as indicated.
1.3 ml samples from the supernatant of each culture were centrifuged at 18 000 rpm in a 55-34 rotor for 1.5 hours and the virus pellet resuspended in 100 μl buffer containing 50 mM Tris-HCl, pH 7.5; 35 mM KCl; 4 mM DTT; 1 mM EDTA; 1.3% Triton X-100. 50 μl samples were taken to the reverse transcriptase activity tests and analyzed in a 100 μl reaction mixture containing 75 mM Tris-HCl, pH 8.0; 60 mM KCl; 6.2 mM MgCl2; 6 mM DTT; 0.5 mM EDTA; 0.65% Triton X-100, 100 μg/ml BSA; 25 μCi/ml ^3H-dTTP (spec activity 80 Ci/mmol); 2.5 μg/ml (dT)12-18; and 2.0 μg/ml (rA)n. Incubation was for 1 hour at 37° C. and the TCA-insoluble product precipitated onto Whatman GF/A filter papers, washed and dried, and counted in a liquid scintillation counter.
The amounts of reverse transcriptase molecules and their total activity expressed in HIV-infected cell cultures is correlated to the amount of HIV particles present. The addition of an effective antiviral agent which inhibits the production of new HIV particles, also decreases the amount of reverse transcriptase molecules and is expressed as a decreased total activity.

DNA polymerase of hepatitis B virus (HBV), sequence (P03156 whole entry): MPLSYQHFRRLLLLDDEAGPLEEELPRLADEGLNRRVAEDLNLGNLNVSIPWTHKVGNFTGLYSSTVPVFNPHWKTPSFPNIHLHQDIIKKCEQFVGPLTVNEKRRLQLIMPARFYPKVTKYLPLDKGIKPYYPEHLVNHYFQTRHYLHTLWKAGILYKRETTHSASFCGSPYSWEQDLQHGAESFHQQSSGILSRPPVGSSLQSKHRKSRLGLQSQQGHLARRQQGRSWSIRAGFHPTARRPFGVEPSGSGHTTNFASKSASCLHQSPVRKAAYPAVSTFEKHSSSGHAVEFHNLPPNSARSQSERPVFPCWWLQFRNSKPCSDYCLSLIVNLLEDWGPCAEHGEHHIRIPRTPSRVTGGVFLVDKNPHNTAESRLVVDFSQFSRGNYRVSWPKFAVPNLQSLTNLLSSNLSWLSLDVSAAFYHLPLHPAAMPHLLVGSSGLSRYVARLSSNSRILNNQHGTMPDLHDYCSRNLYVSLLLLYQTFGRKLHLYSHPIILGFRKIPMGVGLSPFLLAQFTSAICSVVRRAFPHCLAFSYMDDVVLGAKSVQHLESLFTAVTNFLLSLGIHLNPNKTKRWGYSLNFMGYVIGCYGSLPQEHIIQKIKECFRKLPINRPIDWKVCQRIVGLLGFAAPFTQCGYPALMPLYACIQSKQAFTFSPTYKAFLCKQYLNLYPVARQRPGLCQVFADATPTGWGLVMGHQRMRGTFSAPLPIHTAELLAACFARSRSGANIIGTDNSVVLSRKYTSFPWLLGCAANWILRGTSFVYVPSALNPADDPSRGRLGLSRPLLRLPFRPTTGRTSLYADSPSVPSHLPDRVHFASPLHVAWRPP

Cc1cn([C@H]2C[C@H](F)[C@@H](COP(=O)(O)OP(=O)(O)OP(=O)(O)O)O2)c(=O)[nH]c1=O [3′-deoxy-3′-fluorothymidine-5′-triphosphate]
inhibition at 0.01 µM ([1]; 0.01 μM): 17% | inhibition at 0.05 µM ([1]; 0.05 μM): 17% | inhibition at 0.1 µM ([1]; 0.1 μM): 39% | inhibition at 0.5 µM ([1]; 0.5 μM): 79% | % inhibition of HIV (HTLV-III/LAV) reverse transcriptase ([2]; 0.01 μM): 12% | % inhibition of HIV (HTLV-III/LAV) reverse transcriptase ([2]; 0.05 μM): 27% | % inhibition of HIV (HTLV-III/LAV) reverse transcriptase ([2]; 0.1 μM): 38%

Cc1cn([C@H]2C[C@H](F)[C@@H](CO)O2)c(=O)[nH]c1=O [3′-deoxy-3′-fluorothymidine]
Reverse transcriptase activity ([3]; 0.01 μM, 4 days post-infection, 0 μM control 0.9): 0.5 cpm × 10^−3 | Reverse transcriptase activity ([3]; 0.01 μM, 8 days post-infection, 0 μM control 19): 1.3 cpm × 10^−3 | Reverse transcriptase activity ([3]; 0.01 μM, 11 days post-infection, 0 μM control 17): 1.9 cpm × 10^−3 | Reverse transcriptase activity ([3]; 0.01 μM, 15 days post-infection, 0 μM control 11): 2.7 cpm × 10^−3 | Reverse transcriptase activity ([3]; 0.01 μM, 18 days post-infection, 0 μM control 27): 28 cpm × 10^−3 | Reverse transcriptase activity ([3]; 0.01 μM, 22 days post-infection, 0 μM control 46): 52 cpm × 10^−3 | Reverse transcriptase activity ([3]; 0.01 μM, 29 days post-infection, 0 μM control 16): 21 cpm × 10^−3 | effect on reverse transcriptase activity of HIV in infected H9 cells (in words) ([3]; 0.01 μM, up to 11 days): enzyme activity was not detected | Reverse transcriptase activity ([3]; 0.05 μM, 4 days post-infection, 0 μM control 0.9): 0.3 cpm × 10^−3 | Reverse transcriptase activity ([3]; 0.05 μM, 8 days post-infection, 0 μM control 19): 0.3 cpm × 10^−3 | Reverse transcriptase activity ([3]; 0.05 μM, 11 days post-infection, 0 μM control 17): 0.4 cpm × 10^−3 | Reverse transcriptase activity ([3]; 0.05 μM, 15 days post-infection, 0 μM control 11): 0.6 cpm × 10^−3 | Reverse transcriptase activity ([3]; 0.05 μM, 18 days post-infection, 0 μM control 27): 0.5 cpm × 10^−3 | Reverse transcriptase activity ([3]; 0.05 μM, 22 days post-infection, 0 μM control 46): 1.6 cpm × 10^−3 | Reverse transcriptase activity ([3]; 0.05 μM, 29 days post-infection, 0 μM control 16): 3.1 cpm × 10^−3 | effect on reverse transcriptase activity of HIV in infected H9 cells (in words) ([3]; 0.05 μM, up to 22 days): no significant enzyme activity was detected | effect on reverse transcriptase activity of HIV in infected H9 cells (in words) ([3]; 0.1 μM and higher concentrations, during at least 29 days): completely prevents the enzyme activity | Reverse transcriptase activity ([3]; 0.1 μM, 4 days post-infection, 0 μM control 0.9): 0.2 cpm × 10^−3 | Reverse transcriptase activity ([3]; 0.1 μM, 8 days post-infection, 0 μM control 19): 0.2 cpm × 10^−3 | Reverse transcriptase activity ([3]; 0.1 μM, 11 days post-infection, 0 μM control 17): 0.5 cpm × 10^−3 | Reverse transcriptase activity ([3]; 0.1 μM, 15 days post-infection, 0 μM control 11): 0.4 cpm × 10^−3 | Reverse transcriptase activity ([3]; 0.1 μM, 18 days post-infection, 0 μM control 27): 0.4 cpm × 10^−3 | Reverse transcriptase activity ([3]; 0.1 μM, 22 days post-infection, 0 μM control 46): 0.2 cpm × 10^−3 | Reverse transcriptase activity ([3]; 0.1 μM, 29 days post-infection, 0 μM control 16): 0.2 cpm × 10^−3 | Reverse transcriptase activity ([3]; 0.5 μM, 4 days post-infection, 0 μM control 0.9): 0.3 cpm × 10^−3 | Reverse transcriptase activity ([3]; 0.5 μM, 8 days post-infection, 0 μM control 19): 0.3 cpm × 10^−3 | Reverse transcriptase activity ([3]; 0.5 μM, 11 days post-infection, 0 μM control 17): 0.5 cpm × 10^−3 | Reverse transcriptase activity ([3]; 0.5 μM, 15 days post-infection, 0 μM control 11): 0.3 cpm × 10^−3 | Reverse transcriptase activity ([3]; 0.5 μM, 18 days post-infection, 0 μM control 27): 0.6 cpm × 10^−3 | Reverse transcriptase activity ([3]; 0.5 μM, 22 days post-infection, 0 μM control 46): 0.1 cpm × 10^−3 | Reverse transcriptase activity ([3]; 0.5 μM, 29 days post-infection, 0 μM control 16): 0.2 cpm × 10^−3 | Reverse transcriptase activity ([3]; 1.0 μM, 4 days post-infection, 0 μM control 0.9): 0.3 cpm × 10^−3 | Reverse transcriptase activity ([3]; 1.0 μM, 8 days post-infection, 0 μM control 19): 0.2 cpm × 10^−3 | Reverse transcriptase activity ([3]; 1.0 μM, 11 days post-infection, 0 μM control 17): 0.5 cpm × 10^−3 | Reverse transcriptase activity ([3]; 1.0 μM, 15 days post-infection, 0 μM control 11): 0.4 cpm × 10^−3 | Reverse transcriptase activity ([3]; 1.0 μM, 18 days post-infection, 0 μM control 27): 0.5 cpm × 10^−3 | Reverse transcriptase activity ([3]; 1.0 μM, 22 days post-infection, 0 μM control 46): 0.1 cpm × 10^−3 | Reverse transcriptase activity ([3]; 1.0 μM, 29 days post-infection, 0 μM control 16): 0.2 cpm × 10^−3
